Laboratory results as given in publication PMC7705649 (Scientific Reports, 2020).
Where “and” joins values, the source holds several entries; their conditions need not be identical. Equal values may be shown once. Read-outs that look alike come from different tables or passages of the source.

Key:
[1] = RP-HPLC hydrophobicity determination (C18 column); assay type: physicochemical; conditions: Symmetry C18, phosphate-buffered saline/methanol, y-intercept of log k vs methanol fraction, 25 °C; ± 95% confidence interval
Experimental: All HPLC measurements were carried out on an Agilent 1100 series HPLC system (Agilent Technologies, Waldbronn, Germany) coupled with a diode array detector (DAD). System control, data collection and data processing were accomplished using ChemStation for LC 3D software by Agilent Technologies. RP-HPLC hydrophobicity determination was carried on Symmetry C18 reversed-phase column (150 × 4.6 mm, 3.5 µm particle size) obtained by Waters (Milford, MA, USA), with phosphate-buffered saline and methanol as mobile phase. The flow rate was set at 1.0 mL/min with the injection volume of 10.0 µL whilst the column temperature was maintained at 25.0 ± 0.1 °C. To obtain hydrophobicity, the log k values were calculated using retention times of investigated compounds (tR) and retention time of sodium nitrate as unretained compound (t0). […] At least five different concentrations of methanol in the mobile phase were applied for each standard substance and all measurements at each methanol fraction were performed in triplicates. […] Column equilibration time of 20 min was necessary after every change of mobile phase. Finally, log kw C18 value, describing hydrophobicity, was obtained by calculating the y-intercept of the regression line in a plot of log k vs. methanol fraction in the mobile phase.

[2] = Affinity for immobilized phospholipids (IAM chromatography); assay type: physicochemical; conditions: IAM.PC.DD2 column, phosphate-buffered saline/methanol, y-intercept of log k vs methanol fraction; ± 95% confidence interval
Description: The same HPLC conditions, mobile phases and calculation approaches were used for evaluation of IAM affinity, as in determining hydrophobicity with the RP-HPLC column.

[3] = target: T1, human serum albumin (Homo sapiens, UniProt P02768); conditions: binding percentage to human serum albumin, biomimetic column, ± RSD (%)
T1 sequence (P02768 25-609): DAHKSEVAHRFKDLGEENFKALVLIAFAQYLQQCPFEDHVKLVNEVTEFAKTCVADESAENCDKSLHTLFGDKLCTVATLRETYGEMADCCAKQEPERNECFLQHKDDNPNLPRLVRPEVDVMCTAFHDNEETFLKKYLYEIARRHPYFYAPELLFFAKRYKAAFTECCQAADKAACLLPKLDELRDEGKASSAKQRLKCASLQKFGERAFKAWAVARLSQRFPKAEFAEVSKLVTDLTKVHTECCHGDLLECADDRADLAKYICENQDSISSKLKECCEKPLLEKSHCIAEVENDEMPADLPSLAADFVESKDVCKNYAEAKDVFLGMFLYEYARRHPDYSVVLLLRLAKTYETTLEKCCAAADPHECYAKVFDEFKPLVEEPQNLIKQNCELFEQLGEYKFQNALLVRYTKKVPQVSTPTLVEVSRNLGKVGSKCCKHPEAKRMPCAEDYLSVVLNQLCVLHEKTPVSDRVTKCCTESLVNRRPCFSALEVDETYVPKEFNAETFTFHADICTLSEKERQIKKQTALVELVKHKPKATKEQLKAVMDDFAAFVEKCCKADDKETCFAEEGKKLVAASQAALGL

[4] = system: α1-acid-glycoprotein; experiment: Plasma protein binding on biomimetic AGP column; assay type: in vitro ADME; conditions: for PPBAGP (%): binding percentage to α1-acid-glycoprotein, biomimetic column, ± RSD (%)
[5] = target: T1, human serum albumin; experiment: Frontal analysis of FA on HSA column (HPAC); assay type: binding
Experimental: Frontal and zonal elution studies were carried out on HSA (Chiralpak-HSA, 50 × 4.6 mm, 5 μm particle size) biomimetic column obtained by ChromTech (Cedex, France). […] Injection volume was set at 10.0 µL and the measurements were carried out at 25.0 ± 0.1 °C.

| log kw C18 [1] | log kw IAM [2] | PPBHSA (%) [3] | PPBAGP (%) [4] | affinity for AGP lower than for HSA ([4]; difference PPBHSA minus PPBAGP) | PPBHSA (%) ([3]; listed as folic acid) | moles of binding sites (mL) ([5]; frontal analysis, HSA column, brackets = 95% confidence interval) | type of binding site on HSA ([5]; linear double-reciprocal plot, 1-20 µM FA) | SMILES |
| --- | --- | --- | --- | --- | --- | --- | --- | --- |
| 3.71 ± 0.24 | 2.77 ± 0.23 |  |  |  |  |  |  | O=C(O)c1cc(/N=N/c2ccc(S(=O)(=O)Nc3ccccn3)cc2)ccc1O [SASP, sulfasalazine] |
| 3.25 ± 0.09 | 1.69 ± 0.17 | 96.00 ± 0.03% |  |  |  |  |  | O=C(O)c1cc(/N=N/c2ccc(O)c(C(=O)O)c2)ccc1O [OSZ, olsalazine] |
| 0.37 and 0.37 ± 0.19 | 0.17 and 0.17 ± 0.02 | 61.44 ± 0.51% |  |  |  |  |  | Nc1ccc(O)c(C(=O)O)c1 [MSZ, mesalazine] |
| 3.01 ± 0.09 | 1.20 ± 0.11 | 91.64 ± 0.04% | 77.60 ± 0.58% | 14% |  |  |  | O=C(O)CCNC(=O)c1ccc(/N=N/c2ccc(O)c(C(=O)O)c2)cc1 [BSZ, balsalazide] |
| 0.99 and 0.99 ± 0.31 |  | 69.40 ± 0.53% | 3.45% |  | 69.40% | 2.34 (± 1.16) × 10^–7 mol | single type of binding site | Nc1nc2ncc(CNc3ccc(C(=O)N[C@@H](CCC(=O)O)C(=O)O)cc3)nc2c(=O)[nH]1 [FA, folic acid] |
